Measured values from patent US20260226071A1, “2, 4-DIANILINOPYRIMIDINE-BASED AURORA-A KINASE SELECTIVE DEGRADATION INDUCING COMPOUNDS” (UPPTHERA, INC., priority 2023, published 2026).

Columns and labels:
[1] = tested on: NCI-H446 cell line; assay: Cell viability assay for NCI-H446 cell line; format: cell-based; details: Homo sapiens, NCI-H446, 120 h; H446 cells, 5 days culture, EZ-Cytox; read-out: IC50 value (Level)
Source text: The NCI-H446 (hereafter H446) cell lines were provided from American Type Culture Collection (ATCC). For cell culture, RPMI medium 1640 (Gibco, Cat. No. 22400-089; Lot. No. 2522717), FBS (Gibco, Cat. No. 16000-044; Lot. No. 2716756P), Penicillin/Streptomycin (PS) (Gibco, Cat. No. 15140-122; Lot. No. 2585636), 75T cell culture flask (SPL, Cat. No. 70075), 96 well cell culture plate (SPL, Cat. No. 30096), PBS pH 7.4 (Gibco, Cat. No. 10010-023; Lot. No. 2561466), TrypLE™ Express (Gibco, Cat. No. 12605-010; Lot. No. 2492811), counting chamber (hematocytometer) (Hirschmann, Cat. No. 8100204) and 0.4% Trypan Blue solution (DYNEBIO, Cat. No. CBT3710; Lot. No. 20231017) were used. Cells were cultured in RPMI 1640 medium supplemented with 10% FBS and 1% PS and incubated at 37° C., 5% CO2 condition in CO2 incubator (ThermoScientific, Cat. No. 4111).
For experiment, the present compounds were fully dissolved in DMSO (Sigma-Aldrich Cat. No. D2438, Lot. No. RNBL7287.
In each well of 96-well cell culture plate, […] cells of H446 cell lines were seeded in 150 μl of total medium volume. After 24 hours of cell seeding, the present compounds were treated.
The present compounds were each diluted 3-folds from the highest concentration of 1000 nM to the lowest concentration of 0.15 nM. The compound was added to each well to make the total volume of […] and the cells were cultured for 5 days in CO2 incubator (Thermo Fisher Science, Cat. No. 4111).
Thereafter, 20 μl of EZ-Cytox (DOGEN, Cat. NO. EZ-3000, Lot. No. DLS2308) was added to each well and the cells were cultured for 4 hours at the same condition in CO2 incubator. After culture, the absorbance of the sample was measured by setting the wavelength of a plate reader (BMG Labtech, CLARIOstar Plus) to […]. The samples were shaked for 2 minutes in the plate reader before measurement.

[2] = biological target: T1, Aurora kinase A (AURKA) (Homo sapiens, UniProt O14965); assay: Luciferase assay for AURKA in HeLa LgBit (AURKA-HiBit KI) cell line; format: cell-based; details: HeLa LgBit (AURKA-HiBit KI) cells, measured after 12 hours
T1 construct: endogenous in cells; host or cells: HeLa LgBit (AURKA-HiBit KI), CRISPR/Cas9 knock-in at the endogenous AURKA locus
T1 sequence (O14965 1-403): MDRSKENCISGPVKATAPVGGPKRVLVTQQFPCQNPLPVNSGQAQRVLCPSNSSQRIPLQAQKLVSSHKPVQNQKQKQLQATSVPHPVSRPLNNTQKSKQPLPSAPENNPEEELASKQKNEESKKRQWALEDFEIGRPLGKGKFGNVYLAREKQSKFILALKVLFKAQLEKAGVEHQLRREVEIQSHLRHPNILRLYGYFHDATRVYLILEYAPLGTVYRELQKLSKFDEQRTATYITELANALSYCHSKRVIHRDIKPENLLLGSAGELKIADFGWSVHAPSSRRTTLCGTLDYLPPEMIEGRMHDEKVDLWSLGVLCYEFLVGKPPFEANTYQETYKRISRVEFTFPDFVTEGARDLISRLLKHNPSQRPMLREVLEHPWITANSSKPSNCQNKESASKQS
Outline: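 Test compounds (10 nM or 100 nM) added to AURKA-HiBit knock-in HeLa LgBit cells that had been pre-loaded with Endurazine for 2 h following an 18 h culture at 3×10^4 cells. Endogenous AURKA-HiBit level followed by luminescence (470-480 nm), measured after 12 h.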

Row | Structure (SMILES) | IC50 [1] | luminescence value (Level) ([2]; 10 nM compound) | luminescence value (Level) ([2]; 100 nM compound)
1 | O=C1CCC(c2ccc(N3CCN(CCC4CCN(NC(=O)c5ccc(Nc6ncc(F)c(Nc7ccc(NC(=O)c8ccccc8Cl)cc7)n6)cc5)CC4)CC3)cc2)C(=O)N1 (stereo not drawn) [Compound 93, 2-chloro-N-(4-((2-((4-((4-(2-(4-(4-(2,6-dioxopiperidin-3-yl)phenyl)piperazin-1-yl)ethyl)piperidin-1-yl)carbamoyl)phenyl)amino)-5-fluoropyrimidin-4-yl)amino)phenyl)benzamide] | < 50 nM | A (A is <0.3) | A (A is <0.2)
2 | CN(CC1CCN(c2ccc(C3CCC(=O)NC3=O)cc2F)CC1)[C@H]1C[C@H](NC(=O)c2ccc(Nc3ncc(F)c(Nc4ccc(C(=O)Nc5ccccc5Cl)cc4)n3)cc2)C1 (stereo partly drawn) [Compound 76, N-(2-chlorophenyl)-4-((2-((4-(((1r,3r)-3-(((1-(4-(2,6-dioxopiperidin-3-yl)-2-fluorophenyl)piperidin-4-yl)methyl)(methyl)amino)cyclobutyl)carbamoyl)phenyl)amino)-5-fluoropyrimidin-4-yl)amino)benzamide] | 50 to 100 nM | B (B is 0.3 to 0.5) | A (A is <0.2)
3 | C[C@@H](CN1CCN(c2ccc(C3CCC(=O)NC3=O)cc2)CC1)C1CCN(NC(=O)c2ccc(Nc3ncc(F)c(Nc4ccc(C(=O)Nc5ccccc5Cl)cc4)n3)cc2)CC1 (stereo partly drawn) [Compound 79, N-(2-chlorophenyl)-4-((2-((4-((4-((2R)-1-(4-(4-(2,6-dioxopiperidin-3-yl)phenyl)piperazin-1-yl)propan-2-yl)piperidin-1-yl)carbamoyl)phenyl)amino)-5-fluoropyrimidin-4-yl)amino)benzamide] | < 50 nM | A (A is <0.3) | A (A is <0.2)
4 | O=C1CCC(Nc2ccc(N3CCN(C[C@H]4CC[C@H](NC(=O)c5ccc(Nc6ncc(F)c(Nc7ccc(C(=O)Nc8ccccc8Cl)cc7)n6)cc5)CC4)CC3)cc2)C(=O)N1 (stereo partly drawn) [Compound 26, N-(2-chlorophenyl)-4-((2-((4-(((1r,4r)-4-((4-(4-((2,6-dioxopiperidin-3-yl)amino)phenyl)piperazin-1-yl)methyl)cyclohexyl)carbamoyl)phenyl)amino)-5-fluoropyrimidin-4-yl)amino)benzamide] | < 50 nM | B (B is 0.3 to 0.5) | B (B is 0.2 to 0.4)
5 | O=C1CCC(c2ccc(N3CCN(CCC4CCN(NC(=O)c5ccc(Nc6ncc(F)c(Nc7ccc(C(=O)Nc8ccccc8Cl)cc7)n6)cn5)CC4)CC3)cc2)C(=O)N1 (stereo not drawn) [Compound 83, 5-[[4-[4-[(2-chlorophenyl)carbamoyl]anilino]-5-fluoro-pyrimidin-2-yl]amino]-N-[4-[2-[4-[4-(2,6-dioxo-3-piperidyl)phenyl]piperazin-1-yl]ethyl]-1-piperidyl]pyridine-2-carboxamide] | > 200 nM | B (B is 0.3 to 0.5) | A (A is <0.2)
6 | O=C1CCC(c2ccc(N3CCN(CC4CCN(C(=O)c5ccc(Nc6ncc(F)c(Nc7ccc(C(=O)Nc8ccccc8Cl)cc7)n6)cc5)CC4)CC3)cc2)C(=O)N1 (stereo not drawn) [Compound 3, N-(2-chlorophenyl)-4-((2-((4-(4-((4-(4-(2,6-dioxopiperidin-3-yl)phenyl)piperazin-1-yl)methyl)piperidine-1-carbonyl)phenyl)amino)-5-fluoropyrimidin-4-yl)amino)benzamide] | 50 to 100 nM | C (C is 0.5 to 0.7) | A (A is <0.2)
7 | O=C1CCC(c2ccc(N3CCN(CCC4CCN(NC(=O)c5ccc(Nc6ncc(F)c(Nc7ccc(C(=O)Nc8ccccc8F)cc7)n6)cc5)CC4)CC3)cc2)C(=O)N1 (stereo not drawn) [Compound 90, 4-[[2-[4-[[4-[2-[4-[4-(2,6-dioxo-3-piperidyl)phenyl]piperazin-1-yl]ethyl]-1-piperidyl]carbamoyl]anilino]-5-fluoro-pyrimidin-4-yl]amino]-N-(2-fluorophenyl)benzamide] | < 50 nM | A (A is <0.3) | A (A is <0.2)
8 | CN(Cc1ccc(Nc2ncc(F)c(Nc3ccc(C(=O)Nc4ccccc4Cl)cc3)n2)cc1)C1CCN(CCN2CCN(c3ccc(C4CCC(=O)NC4=O)cc3)CC2)CC1 (stereo not drawn) [Compound 100, N-(2-chlorophenyl)-4-((2-((4-(((1-(2-(4-(4-(2,6-dioxopiperidin-3-yl)phenyl)piperazin-1-yl)ethyl)piperidin-4-yl)(methyl)amino)methyl)phenyl)amino)-5-fluoropyrimidin-4-yl)amino)benzamide] | > 200 nM | C (C is 0.5 to 0.7) | A (A is <0.2)
9 | COc1cc(N2CCN(CCC3CCN(NC(=O)c4ccc(Nc5ncc(F)c(Nc6ccc(C(=O)Nc7ccccc7Cl)cc6)n5)cc4)CC3)CC2)c(F)cc1NC1CCC(=O)NC1=O (stereo not drawn) [Compound 117, N-(2-chlorophenyl)-4-((2-((4-((4-(2-(4-(4-((2,6-dioxopiperidin-3-yl)amino)-2-fluoro-5-methoxyphenyl)piperazin-1-yl)ethyl)piperidin-1-yl)carbamoyl)phenyl)amino)-5-fluoropyrimidin-4-yl)amino)benzamide] | < 50 nM | A (A is <0.3) | A (A is <0.2)
10 | O=C1CCC(c2ccc(N3CCN(CCC4CCN(NC(=O)c5ccc(Nc6ncc(F)c(Nc7ccccc7)n6)cc5)CC4)CC3)cc2)C(=O)N1 (stereo not drawn) [Compound 58, N-(4-(2-(4-(4-(2,6-dioxopiperidin-3-yl)phenyl)piperazin-1-yl)ethyl)piperidin-1-yl)-4-((5-fluoro-4-(phenylamino)pyrimidin-2-yl)amino)benzamide] | < 50 nM | A (A is <0.3) | A (A is <0.2)
11 | COc1cc(N2CCN(CCC3CCN(NC(=O)c4ccc(Nc5ncc(F)c(Nc6ccc(C(=O)Nc7ccccc7Cl)cc6)n5)cc4)CC3)CC2)c(F)cc1C1CCC(=O)NC1=O (stereo not drawn) [Compound 118, N-(2-chlorophenyl)-4-((2-((4-((4-(2-(4-(4-(2,6-dioxopiperidin-3-yl)-2-fluoro-5-methoxyphenyl)piperazin-1-yl)ethyl)piperidin-1-yl)carbamoyl)phenyl)amino)-5-fluoropyrimidin-4-yl)amino)benzamide] | 50 to 100 nM | B (B is 0.3 to 0.5) | A (A is <0.2)
12 | CN(c1cccc(N2CCC(CN3CCN(C(=O)Cc4ccc(Nc5ncc(F)c(Nc6ccc(C(=O)Nc7ccccc7Cl)cc6)n5)cc4)CC3)CC2)c1)C1CCC(=O)NC1=O (stereo not drawn) [Compound 45, N-(2-chlorophenyl)-4-((2-((4-(2-(4-((1-(3-((2,6-dioxopiperidin-3-yl)(methyl)amino)phenyl)piperidin-4-yl)methyl)piperazin-1-yl)-2-oxoethyl)phenyl)amino)-5-fluoropyrimidin-4-yl)amino)benzamide] | 50 to 100 nM | C (C is 0.5 to 0.7) | B (B is 0.2 to 0.4)
